Reference: ChEMBL document CHEMBL1201862, “PubChem BioAssay data set” (2004)
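Interpolation was linear, between the two tested concentrations surrounding the appropriate level; five concentrations were tested over 48 hours in 96-well plates. GI50 marks 50% less growth.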 Activity calls are given as the source filed them. Cut-off read from the data, not from the text of the source: active = GI50 up to about 1.1 µM and inactive = higher.

Tests used:
Experiment in all cases: growth of human tumour cells (NCI), 48 h
786-0 = system: 786-0
A549 = system: A549
ACHN = system: ACHN
BT-549 = system: BT-549
CAKI-1 = system: CAKI-1
CCRF-CEM = system: CCRF-CEM
COLO 205 = system: COLO 205
DU-145 = system: DU-145
EKVX = system: EKVX
HCC 2998 = system: HCC 2998
HCT-116 = system: HCT-116
HCT-15 = system: HCT-15
HL-60 = system: HL-60
HOP-62 = system: HOP-62
HOP-92 = system: HOP-92
HT-29 = system: HT-29
Hs-578T = system: Hs-578T
IGROV-1 = system: IGROV-1
K562 = system: K562
KM12 = system: KM12
M14 = system: M14
MCF7 = system: MCF7
MDA-MB-231 = system: MDA-MB-231
MDA-MB-435 = system: MDA-MB-435
MDA-N = system: MDA-N
MOLT-4 = system: MOLT-4
Malme-3M = system: Malme-3M
NCI-H226 = system: NCI-H226
NCI-H23 = system: NCI-H23
NCI-H460 = system: NCI-H460
NCI-H522 = system: NCI-H522
NCI/ADR-RES = system: NCI/ADR-RES
OVCAR-3 = system: OVCAR-3
OVCAR-4 = system: OVCAR-4
OVCAR-8 = system: OVCAR-8
PC-3 = system: PC-3
RPMI-8226 = system: RPMI-8226
RXF 393 = system: RXF 393
SF-268 = system: SF-268
SF-295 = system: SF-295
SF-539 = system: SF-539
SK-MEL-28 = system: SK-MEL-28
SK-MEL-2 = system: SK-MEL-2
SK-MEL-5 = system: SK-MEL-5
SK-OV-3 = system: SK-OV-3
SN12C = system: SN12C
SNB-19 = system: SNB-19
SNB-75 = system: SNB-75
SR = system: SR
SW-620 = system: SW-620
T47D = system: T47D
TK-10 = system: TK-10
U-251 = system: U-251
UACC-257 = system: UACC-257
UACC-62 = system: UACC-62
UO-31 = system: UO-31
LOX IMVI = system: LOX IMVI
OVCAR-5 = system: OVCAR-5
A498 = system: A498

Measured: GI50

Cc1ccccc1C(=O)C#Cc1cn(C2CC(O)C(CO)O2)c(=O)[nH]c1=O (configuration not stated)
inactive: 786-0 > 100 µM | A549 > 100 µM | ACHN > 100 µM | BT-549 > 100 µM | CAKI-1 > 100 µM | CCRF-CEM 20.5 µM | COLO 205 > 100 µM | DU-145 > 100 µM | EKVX > 100 µM | HCC 2998 > 100 µM | HCT-116 > 100 µM | HL-60 > 100 µM | HOP-62 > 100 µM | HOP-92 74.1 µM | HT-29 > 100 µM | Hs-578T > 100 µM | IGROV-1 > 100 µM | K562 57 µM | KM12 > 100 µM | M14 > 100 µM | MCF7 > 100 µM | MDA-MB-231 > 100 µM | MDA-MB-435 > 100 µM | MDA-N > 100 µM | MOLT-4 16.1 µM | Malme-3M 18.3 µM | NCI-H226 > 100 µM | NCI-H23 > 100 µM | NCI-H460 > 100 µM | NCI-H522 14.7 µM | NCI/ADR-RES > 100 µM | OVCAR-3 > 100 µM | OVCAR-4 > 100 µM | OVCAR-8 > 100 µM | PC-3 > 100 µM | RPMI-8226 > 100 µM | RXF 393 > 100 µM | SF-268 > 100 µM | SF-295 > 100 µM | SF-539 > 100 µM | SK-MEL-28 > 100 µM | SK-MEL-2 > 100 µM | SK-MEL-5 > 100 µM | SK-OV-3 > 100 µM | SN12C > 100 µM | SNB-19 > 100 µM | SNB-75 > 100 µM | SR 27.9 µM | SW-620 > 100 µM | T47D 68.2 µM | TK-10 > 100 µM | U-251 > 100 µM | UACC-257 > 100 µM | UACC-62 > 100 µM | UO-31 > 100 µM
> 100 µM: HCT-15

c1ccc(-c2cc(-c3ccccc3)nc(-c3ccncc3)c2)cc1
inactive: 786-0 18 µM | A549 > 100 µM | ACHN 70.8 µM | BT-549 > 100 µM | CAKI-1 > 100 µM | CCRF-CEM > 100 µM | COLO 205 > 100 µM | DU-145 > 100 µM | EKVX > 100 µM | HCC 2998 > 100 µM | HCT-116 48.8 µM | HL-60 > 100 µM | HOP-62 16.1 µM | Hs-578T > 100 µM | IGROV-1 25.9 µM | K562 > 100 µM | KM12 96.4 µM | LOX IMVI > 100 µM | M14 42.4 µM | MCF7 > 100 µM | MDA-MB-231 97.5 µM | MDA-MB-435 > 100 µM | MDA-N > 100 µM | MOLT-4 > 100 µM | Malme-3M > 100 µM | NCI-H226 58.5 µM | NCI-H23 91.4 µM | NCI-H522 > 100 µM | NCI/ADR-RES > 100 µM | OVCAR-3 > 100 µM | OVCAR-4 16.4 µM | OVCAR-5 > 100 µM | OVCAR-8 > 100 µM | PC-3 > 100 µM | RPMI-8226 > 100 µM | RXF 393 44.6 µM | SF-268 > 100 µM | SF-295 57.1 µM | SK-MEL-28 > 100 µM | SK-MEL-2 > 100 µM | SK-MEL-5 57.1 µM | SK-OV-3 > 100 µM | SN12C > 100 µM | SNB-19 53.8 µM | SR > 100 µM | SW-620 > 100 µM | T47D > 100 µM | TK-10 40.4 µM | U-251 37.6 µM | UACC-257 99.8 µM | UACC-62 > 100 µM | UO-31 > 100 µM
> 100 µM: HCT-15

Cc1cc2ccccc2n1CC(=O)NCC(C)C
> 100 µM: HCT-15
inactive: 786-0 > 100 µM | A549 > 100 µM | ACHN > 100 µM | BT-549 > 100 µM | CAKI-1 > 100 µM | CCRF-CEM > 100 µM | COLO 205 > 100 µM | DU-145 > 100 µM | EKVX > 100 µM | HCC 2998 > 100 µM | HCT-116 > 100 µM | HL-60 > 100 µM | HOP-62 > 100 µM | HOP-92 > 100 µM | HT-29 > 100 µM | Hs-578T > 100 µM | IGROV-1 > 100 µM | K562 > 100 µM | KM12 > 100 µM | LOX IMVI > 100 µM | M14 > 100 µM | MCF7 > 100 µM | MDA-MB-231 > 100 µM | MDA-MB-435 > 100 µM | MDA-N > 100 µM | MOLT-4 > 100 µM | Malme-3M > 100 µM | NCI-H226 > 100 µM | NCI-H23 > 100 µM | NCI-H460 > 100 µM | NCI-H522 > 100 µM | NCI/ADR-RES > 100 µM | OVCAR-3 > 100 µM | OVCAR-4 > 100 µM | OVCAR-5 > 100 µM | OVCAR-8 > 100 µM | PC-3 > 100 µM | RPMI-8226 > 100 µM | RXF 393 > 100 µM | SF-268 > 100 µM | SF-295 > 100 µM | SF-539 > 100 µM | SK-MEL-28 > 100 µM | SK-MEL-2 > 100 µM | SK-MEL-5 > 100 µM | SK-OV-3 > 100 µM | SN12C > 100 µM | SNB-19 > 100 µM | SNB-75 > 100 µM | SR > 100 µM | SW-620 > 100 µM | T47D > 100 µM | TK-10 > 100 µM | U-251 > 100 µM | UACC-257 > 100 µM | UACC-62 > 100 µM | UO-31 > 100 µM

[N-]=[N+]=NC1(c2ccccc2)C(=O)Nc2ccccc2C1=O (configuration not stated)
inactive: 786-0 68.2 µM | A549 76.4 µM | ACHN 34.6 µM | BT-549 13.8 µM | CAKI-1 32.2 µM | CCRF-CEM 27.3 µM | COLO 205 71.4 µM | DU-145 75.5 µM | HCC 2998 57.8 µM | HCT-116 30.3 µM | HL-60 34.5 µM | HOP-62 41.8 µM | HOP-92 26.1 µM | HT-29 31.3 µM | Hs-578T 22.3 µM | IGROV-1 37.1 µM | K562 29.4 µM | KM12 30.1 µM | LOX IMVI 37.5 µM | M14 20.4 µM | MCF7 35 µM | MDA-MB-231 55.2 µM | MDA-MB-435 11.3 µM | MDA-N 21.4 µM | MOLT-4 21.7 µM | Malme-3M 40.7 µM | NCI-H23 34.9 µM | NCI-H460 37.5 µM | NCI/ADR-RES 51.2 µM | OVCAR-3 35 µM | OVCAR-4 54.7 µM | OVCAR-5 30 µM | PC-3 25.1 µM | RPMI-8226 22.7 µM | RXF 393 25.5 µM | SF-268 38.2 µM | SF-295 56.4 µM | SF-539 36.8 µM | SK-MEL-28 56.2 µM | SK-MEL-2 24.4 µM | SK-MEL-5 14.9 µM | SK-OV-3 55.6 µM | SN12C 48.8 µM | SNB-19 38 µM | SNB-75 60.3 µM | SR 41.2 µM | SW-620 26.4 µM | T47D 95.5 µM | TK-10 49.5 µM | U-251 41.2 µM | UACC-257 78.2 µM | UACC-62 19.1 µM | UO-31 22.1 µM
33.8 µM: HCT-15
active: A498 0.706 µM
